Where a name gives a salt, the structure may show the parent alone. Read-outs that look alike come from different tables or passages of the source.
Key:
[1] = system: S. aureus (clinical); assay: Electroanalytically determined MIC, gram-positive bacteria; format: cell-based; conditions: Staphylococcus aureus
From the text: (§1) Identical lots of media and antimicrobial agents were used in the susceptibility tests performed. The media used were trypticase soy agar (TSA) and TSB from Baltimore Biological Laboratories (BBL), Cockeysville, Maryland. The 12 antimicrobial agents used in the experiments, which were chosen on the basis of their clinical usefulness, were laboratory reference standards including the following antibiotics: penicillin G potassium, caphalothin sodium, tobramycin, vancomycin hydrochloride and streptomycin sulfate obtained from Eli Lilly and Co.; tetracycline and carbenicillin obtained from Pfizer Laboratories; ampicillin and sodium nafcillin from Wyeth Laboratories; kanamycin and methicillin from Bristol Laboratories; gentamicin from Schering.
(§2) The following cultures were obtained from Hoffmann-LaRoche, Inc. and were derived from the American Type Culture Collection (ATCC) organisms as indicated: Escherichia coli, "Seattle Strain" ATCC 25922, Klebsiella pneumoniae ATCC 27736; Pseudomonas aeruginosa, ATCC 9721. These bacteria are gram negative bacteria. The following bacteria are gram positive: Staphylococcus aureus, "Seattle Strain" ATCC 25923; Staphylococcus epiderdimis ATCC 14990; and Streptococcus pyogenes, ATCC 10389. In addition, clinical specimens of these same six organisms were obtained from sensitivity isolates from the University of Virginia Hospital Department of Clinical Pathology Bacteriology Section. These organisms, both pathogenic and non-pathogenic (Staphylococcus epidermidis), were chosen because they are some of the most frequently encountered organisms in clinical isolates.
(§3) Inocula were prepared by making a 100-fold dilution×2 of an overnight TSB culture of the organism to be tested in sterile TSB prewarmed to 35° C. Thus, the total dilution of overnight stock was 10^-4. From the 10^-4 series, 0.3 ml was transferred to a test tube (Falcon, disposable #2057) containing 2.7 ml of TSB if the growth control, or 2.6 ml of TSB plus 0.1 ml of a particular concentration of an appropriate antibiotic to be tested. The antibiotic was weighed on an analytical balance, according to each agent's activity standard, and diluted with sterile distilled water in a volumetric flask to achieve a stock solution of 1000 mcg/ml which was then frozen in small aliquots. Further dilutions as necessary for susceptibility testing were also achieved through the addition of sterile distilled water to this stock concentration. Viable counts were made by plating appropriate dilutions from the 10^-4 series on TSA and counting colonies after 24 hours incubation at 35° C. Viable counts were also made on each microorganism at the time of MDC and again at the end of the 24 hour test period to confirm the minimum inhibitory concentration (MIC).
(§4) The experimental apparatus used in this study to monitor the inhibition of growth due to the addition of antibiotics consisted of test tubes, up to and including 8, size 17×100 mm, each containing a sterilized (by boiling) Pt-SCE combination electrode (Sargent-Welch, S-30101-15), plus TSB, microorganisms, and antibiotic where appropriate, positioned in a 35° C. heating block. Leads from the electrode were connected to a high impedance (greater than 10^8 ohms) potentiometer, or voltage following device, which in turn was connected to a strip chart recorder (Hewlett-Packard type 680M). Microbial growth was measured by an increase in voltage in the negative direction with time as recorded on the strip chart recorder.
(§5) FIG. 12 is a stripchart recording of the antimicrobial response curve of a four channeled expriment involving a clinical specimen of the non-hydrogenproducing, Gram-positive bacteria Staphylococcus epidermidis treated with 0.012, 0.5 and 1.0 mcg/ml of the antibiotic ampicillin as shown in curves B, C and D respectively. […]

[2] = system: E. coli (ATCC); assay: Electroanalytically determined MIC, gram-negative bacteria; format: cell-based, Escherichia coli, "Seattle Strain" ATCC 25922
From the text: as §1, §2, §3, §4, §5

[3] = system: S. epidermidis (clinical); assay: Electroanalytically determined MIC / antimicrobial response curve, gram-positive bacteria; format: cell-based, Staphylococcus epidermidis; conditions: for MIC: Staphylococcus epidermidis
From the text: as §1, §2, §3, §4, §5

[4] = system: S. aureus (ATCC); assay: Electroanalytically determined MIC, gram-positive bacteria; format: cell-based, "Seattle Strain" ATCC 25923; conditions: Staphylococcus aureus
From the text: as §1, §2, §3, §4, §5

[5] = system: K. pneumoniae (ATCC); assay: Electroanalytically determined MIC / antimicrobial response curve, gram-negative bacteria; format: cell-based, Klebsiella pneumoniae ATCC 27736
From the text: as §1, §2, §3, §4, §5

[6] = system: E. coli (clinical); assay: Electroanalytically determined MIC, gram-negative bacteria; format: cell-based, Escherichia coli
From the text: as §1, §2, §3, §4, §5

[7] = system: K. pneumoniae (clinical); assay: as above; format: cell-based, Klebsiella pneumoniae
From the text: as §1, §2, §3
as §4, with “recorder. […]” for “recorder.”

[8] = system: P. aeruginosa (clinical); assay: as above; format: cell-based, Pseudomonas aeruginosa
From the text: as §1, §2, §3, §4, §5

[9] = system: S. epidermidis (ATCC); assay: Electroanalytically determined MIC, gram-positive bacteria; format: cell-based, Staphylococcus epiderdimis ATCC 14990; conditions: Staphylococcus epidermidis
From the text: as §1, §2, §3, §4, §5

[10] = system: P. aeruginosa (ATCC); assay: Electroanalytically determined MIC, gram-negative bacteria; format: cell-based, Pseudomonas aeruginosa, ATCC 9721
From the text: as §1, §2, §3, §4, §5

[11] = system: S. pyogenes (clinical); assay: Electroanalytically determined MIC, gram-positive bacteria; format: cell-based; conditions: Streptococcus pyogenes, 24 h
From the text: as §1, §2, §3, §4, §5

[12] = system: S. pyogenes (ATCC); assay: as above; format: cell-based, ATCC 10389; conditions: Streptococcus pyogenes, 24 h
From the text: as §1, with “Schering. […]” for “Schering.”
The experimental apparatus used in this study to monitor the inhibition of growth due to the addition of antibiotics consisted of test tubes, up to and including 8, size 17×100 mm, each containing a sterilized (by boiling) Pt-SCE combination electrode (Sargent-Welch, S-30101-15), plus TSB, microorganisms, and antibiotic where appropriate, positioned in a 35° C. heating block. […] Microbial growth was measured by an increase in voltage in the negative direction with time as recorded on the strip chart recorder. […]

[13] = Escherichia coli, E. coli (ATCC), TSB, 35° C., 24 hour test period, read-out: MIC
[14] = Klebsiella pneumoniae, K. pneumoniae (ATCC), TSB, 35° C., 24 hour test period, read-out: MIC
[15] = Escherichia coli, E. coli (clinical), TSB, 35° C., 24 hour test period, read-out: MIC
[16] = Pseudomonas aeruginosa, P. aeruginosa (clinical), TSB, 35° C., 24 hour test period, read-out: MIC
[17] = Pseudomonas aeruginosa, P. aeruginosa (ATCC), TSB, 35° C., 24 hour test period, read-out: MIC
[18] = S. aureus (clinical), TSB, 35° C., 24 hour test period, read-out: MIC
[19] = S. epidermidis (clinical), TSB, 35° C., 24 hour test period, read-out: MIC
[20] = S. aureus (ATCC), TSB, 35° C., 24 hour test period, read-out: MIC
[21] = S. epidermidis (ATCC), TSB, 35° C., 24 hour test period, read-out: MIC

Row | Molecule | MIC ([1]; 24 h) | MIC ([2]; Escherichia coli, 24 h) | MIC ([3]; 24 h) | MIC ([4]; 24 h) | MIC ([5]; Klebsiella pneumoniae, 24 h) | MIC ([6]; Escherichia coli, 24 h) | MIC ([8]; Pseudomonas aeruginosa, 24 h) | MIC ([9]; 24 h) | MIC ([10]; Pseudomonas aeruginosa, 24 h) | also measured
1 | NC[C@H]1O[C@H](O[C@H]2[C@H](O)[C@@H](O[C@H]3O[C@H](CO)[C@@H](O)[C@H](N)[C@H]3O)[C@H](N)C[C@@H]2N)[C@H](O)[C@@H](O)[C@@H]1O [Kana, kanamycin] | 0.5 to 1 mg/L | 3 mg/L | 0.6 mg/L | 0.2 mg/L | 3 mg/L | 4 mg/L | 64 mg/L | 0.4 mg/L | 32 to 64 mg/L | MIC ([7]; Klebsiella pneumoniae, 24 h): 4 mg/L
2 | CN[C@H](CC(C)C)C(=O)N[C@H]1C(=O)N[C@@H](CC(N)=O)C(=O)N[C@H]2C(=O)N[C@H]3C(=O)N[C@H](C(=O)N[C@H](C(=O)O)c4cc(O)cc(O)c4-c4cc3ccc4O)[C@H](O)c3ccc(c(Cl)c3)Oc3cc2cc(c3O[C@@H]2O[C@H](CO)[C@@H](O)[C@H](O)[C@H]2O[C@H]2C[C@](C)(N)[C@H](O)[C@H](C)O2)Oc2ccc(cc2Cl)[C@H]1O [Vanco, vancomycin hydrochloride] | 2 mg/L |  | 2 to 3 mg/L | 1 mg/L |  |  |  | 1.5 mg/L |  | MIC [11]: 0.5 mg/L; MIC [12]: 0.1 to 0.5 mg/L
3 | CC1(C)S[C@@H]2[C@H](NC(=O)C(C(=O)O)c3ccccc3)C(=O)N2[C@H]1C(=O)O (stereo partly shown) [Carb, carbenicillin] |  |  |  |  |  |  |  |  |  | MIC [2, 13]: 4 mg/L; MIC [5, 14]: > 128 mg/L; MIC [6, 15]: 5 mg/L; MIC ([7]; Klebsiella pneumoniae, K. pneumoniae (clinical), TSB, 35° C., 24 hour test period, read-out: MIC): > 128 mg/L; MIC [8, 16]: 64 mg/L; MIC [10, 17]: 64 mg/L
4 | CC1(C)S[C@@H]2[C@H](NC(=O)Cc3ccccc3)C(=O)N2[C@H]1C(=O)O [Pen G, penicillin G potassium] | 0.05 mg/L |  | 0.1 mg/L | 0.05 mg/L |  |  |  | 0.08 to 0.1 mg/L |  | 
5 | CC(=O)OCC1=C(C(=O)O)N2C(=O)[C@@H](NC(=O)Cc3cccs3)[C@H]2SC1 [Ceph, cephalothin] | 0.8 to 1.6 mg/L | 8 mg/L | 0.5 to 1 mg/L | 0.15 to 0.2 mg/L | 1 mg/L | 9 mg/L | > 360 mg/L | 0.1 mg/L | > 360 mg/L | growth inhibition (antimicrobial response curve, FIG. 13) ([5]; K. pneumoniae ATCC, 0.3, 0.4, 0.5, 1.0 and 2.0 mcg/ml): increasingly inhibited
6 | CCOc1ccc2ccccc2c1C(=O)N[C@@H]1C(=O)N2[C@@H]1SC(C)(C)[C@@H]2C(=O)O [Naf, sodium nafcillin] |  |  |  |  |  |  |  |  |  | MIC [1, 18]: 0.5 mg/L; MIC [3, 19]: 0.5 to 1 mg/L; MIC [4, 20]: 0.5 mg/L; MIC [9, 21]: 0.5 to 1 mg/L
7 | [H]/N=C(/N)N[C@H]1[C@H](O)[C@@H](O)[C@H](O[C@@H]2O[C@@H](C)[C@](O)(C=O)[C@H]2O[C@@H]2O[C@@H](CO)[C@H](O)[C@@H](O)[C@@H]2NC)[C@@H](N/C(N)=N\[H])[C@@H]1O [Strep, streptomycin sulfate] | 8 mg/L | 9 mg/L | 4 to 6 mg/L | 8 mg/L | 5 to 6 mg/L | 9 mg/L |  | 4 mg/L |  | MIC [11]: 0.1 mg/L; MIC [12]: 0.1 mg/L; MIC ([7]; Klebsiella pneumoniae, 24 h): 6 mg/L
8 | CN(C)[C@@H]1C(=O)C(C(N)=O)=C(O)[C@@]2(O)C(=O)C3=C(O)c4c(O)cccc4[C@@](C)(O)[C@H]3C[C@@H]12 [Tetra, tetracycline] | 2 mg/L | 1 mg/L | 2 mg/L | 2 mg/L | 5 to 6 mg/L | 4 mg/L | 64 mg/L | 1 to 2 mg/L | 64 mg/L | MIC ([7]; Klebsiella pneumoniae, 24 h): 5 to 6 mg/L
9 | gentamicin |  |  |  |  |  |  |  |  |  | MIC ([2]; E. coli (ATCC), TSB, 35° C., 24 hour test period): 0.5 mg/L; MIC ([5]; K. pneumoniae (ATCC), TSB, 35° C., 24 hour test period): 0.5 mg/L; MIC ([6]; E. coli (clinical), TSB, 35° C., 24 hour test period): 1.0 mg/L; MIC ([7]; K. pneumoniae (clinical), TSB, 35° C., 24 hour test period): 0.5 mg/L; MIC ([8]; P. aeruginosa (clinical), TSB, 35° C., 24 hour test period): 4.0 mg/L; MIC ([10]; P. aeruginosa (ATCC), TSB, 35° C., 24 hour test period): 2.0 mg/L
10 | COc1cccc(OC)c1C(=O)N[C@@H]1C(=O)N2[C@@H]1SC(C)(C)[C@@H]2C(=O)O [Meth, methicillin] |  |  |  |  |  |  |  |  |  | MIC [1, 18]: 0.7 mg/L; MIC [3, 19]: 0.5 to 1 mg/L; MIC [4, 20]: 0.7 mg/L; MIC [9, 21]: 0.5 to 1 mg/L
11 | NC[C@H]1O[C@H](O[C@H]2[C@H](O)[C@@H](O[C@H]3O[C@H](CO)[C@@H](O)[C@H](N)[C@H]3O)[C@H](N)C[C@@H]2N)[C@H](N)C[C@@H]1O [Tobra, tobramycin] |  |  |  |  |  |  |  |  |  | MIC [8, 16]: 8 mg/L; MIC [10, 17]: 4 mg/L
12 | CC1(C)S[C@@H]2[C@H](NC(=O)[C@H](N)c3ccccc3)C(=O)N2[C@H]1C(=O)O [Amp, ampicillin] |  |  |  |  |  |  | > 128 mg/L |  | > 128 mg/L | MIC [1, 18]: 0.12 mg/L; MIC [2, 13]: 4 mg/L; growth inhibition (antimicrobial response curve, FIG. 12) ([3]; S. epidermidis clinical specimen, 0.012, 0.5 and 1.0 mcg/ml): increasingly inhibited; MIC [3, 19]: 0.8 to 1 mg/L; MIC [4, 20]: 0.12 to 0.6 mg/L; MIC [5, 14]: 32 mg/L; MIC [6, 15]: 6 mg/L; MIC [9, 21]: 1 mg/L

— patent US4246343A, “Microbial detection and enumeration method and apparatus” (University of Virginia and National Aeronautics & Space …, priority 1979, dated 1981)
